Reference: patent publication US11066414B2, “Cot modulators and methods of use thereof” (Gilead Sciences, Inc., priority 2015, dated 2021)
Like-named read-outs stand apart in the source and are kept apart here.

How the values were obtained:
TNFα = assay: Cot Monocyte TNFα Cell Based Assay
Human Cot = Human Cot (Homo sapiens (Human), UniProt P41279); assay: High Throughput Cot Biochemical Assay
[1] = Homo sapiens, Monocyte, read-out: EC50 TNF, LPS-stimulated human monocytes, TNFα
[2] = IC50 HTRF, Cot HTRF (TR-FRET) biochemical assay
[3] = Homo sapiens, Monocyte, read-out: EC50 TNF, LPS-stimulated human monocytes, TNFα TR-FRET
[4] = IC50 HTRF, Cot HTRF (TR-FRET KinEASE) biochemical assay, 400 μM ATP

Sequence of Human Cot (P41279 30-397): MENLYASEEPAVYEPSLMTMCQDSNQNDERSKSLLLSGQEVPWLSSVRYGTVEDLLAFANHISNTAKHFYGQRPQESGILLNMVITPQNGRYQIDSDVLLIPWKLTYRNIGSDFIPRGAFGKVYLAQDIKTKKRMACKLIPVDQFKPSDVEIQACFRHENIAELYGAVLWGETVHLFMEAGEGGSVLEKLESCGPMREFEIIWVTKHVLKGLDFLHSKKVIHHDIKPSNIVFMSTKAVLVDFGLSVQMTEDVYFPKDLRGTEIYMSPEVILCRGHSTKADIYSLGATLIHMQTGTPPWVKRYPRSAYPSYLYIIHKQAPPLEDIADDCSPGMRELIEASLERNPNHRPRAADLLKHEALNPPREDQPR

SMILES | EC50 (TNFα; [1]) [nM] | IC50 (Human Cot; [2]) [nM] | further results
Cc1cncc2cccc([C@H](Nc3cc(Cl)c4ncc(C#N)c(NCC(C)(C)C)c4c3)c3cn(C4(C(F)(F)F)CC4)nn3)c12 [Example 659, (S)-8-chloro-6-(((4-methylisoquinolin-5-yl)(1-(1-(trifluoromethyl)cyclopropyl)-1H-1,2,3-triazol-4-yl)methyl)amino)-4-(neopentylamino)quinoline-3-carbonitrile] | 279 | 41 | –
Cc1ncsc1[C@H](Nc1cc(Cl)c2ncc(C#N)c(Nc3ccc(Cl)c(Cl)c3F)c2c1)c1cn(C2CCN(C(C)(C)C)CC2)nn1 [Example 236, (R)-6-(((1-(1-(tert-butyl)piperidin-4-yl)-1H-1,2,3-triazol-4-yl)(4-methylthiazol-5-yl)methyl)amino)-8-chloro-4-((3,4-dichloro-2-fluorophenyl)amino)quinoline-3-carbonitrile] | 172 | 9 | –
CC(C)(CNc1c(C#N)cnc2c(Cl)cc(N[C@H](c3cn(C4(C(F)F)CC4)nn3)c3ccc(F)c4ncccc34)cc12)C(F)(F)F [Example 918, (S)-8-chloro-6-(((1-(1-(difluoromethyl)cyclopropyl)-1H-1,2,3-triazol-4-yl)(8-fluoroquinolin-5-yl)methyl)amino)-4-((3,3,3-trifluoro-2,2-dimethylpropyl)amino)quinoline-3-carbonitrile] | – | – | EC50 (TNFα; [3]): 42 nM; IC50 (Human Cot; [4]): 3 nM
Cn1ccc2c([C@H](Nc3cc(Cl)c4ncc(C#N)c(NCC(C)(C)CO)c4c3)c3cn(C45CC(C4)C5)nn3)cccc2c1=O [Example 768, (S)-6-(((1-(bicyclo[1.1.1]pentan-1-yl)-1H-1,2,3-triazol-4-yl)(2-methyl-1-oxo-1,2-dihydroisoquinolin-5-yl)methyl)amino)-8-chloro-4-((3-hydroxy-2,2-dimethylpropyl)amino)quinoline-3-carbonitrile] | 86 | 6 | –
Cc1nc(F)ccc1[C@H](Nc1cc(Cl)c2ncc(C#N)c(NCC34CC(C3)C4)c2c1)c1cn(C2(C(F)F)CC2)nn1 [Example 739, (S)-4-((bicyclo[1.1.1]pentan-1-ylmethyl)amino)-8-chloro-6-(((1-(1-(difluoromethyl)cyclopropyl)-1H-1,2,3-triazol-4-yl)(6-fluoro-2-methylpyridin-3-yl)methyl)amino)quinoline-3-carbonitrile] | 254 | 21 | –
Cn1ccc2c([C@H](Nc3cc(C#N)c4ncc(C#N)c(NCC(C)(C)C(F)(F)F)c4c3)c3cn(C4(C(F)F)CC4)nn3)cccc2c1=O [Example 838, (S)-6-(((1-(1-(difluoromethyl)-cyclopropyl)-1H-1,2,3-triazol-4-yl)(2-methyl-1-oxo-1,2-dihydroisoquinolin-5-yl)methyl)amino)-4-((3,3,3-trifluoro-2,2-dimethylpropyl)-amino)quinoline-3,8-dicarbonitrile] | – | – | EC50 (TNFα; [3]): 84 nM; IC50 (Human Cot; [4]): 3 nM
CC(C)(C)CNc1c(C#N)cnc2c(C#N)cc(N[C@H](c3cn(C4(C(F)(F)F)CC4)nn3)c3cccc4cnc(C#N)cc34)cc12 [Example 909, (S)-6-(((3-cyanoisoquinolin-5-yl)(1-(1-(trifluoromethyl)cyclopropyl)-1H-1,2,3-triazol-4-yl)methyl)amino)-4-(neopentylamino)quinoline-3,8-dicarbonitrile] | – | – | EC50 (TNFα; [3]): 116 nM; IC50 (Human Cot; [4]): 8 nM
Cn1ncc2c([C@H](Nc3cc(C#N)c4ncc(C#N)c(NCC(C)(C)C)c4c3)c3cn(Cc4c(F)cccc4F)nn3)cccc21 [Example 656] | – | – | EC50 (TNFα; read-out: EC50 TNF, LPS-stimulated human monocytes, TNFα): 86 nM; IC50 (Human Cot; read-out: IC50 HTRF, Cot HTRF (TR-FRET) biochemical assay): 4 nM
Cc1nc(F)ccc1[C@H](Nc1cc(Cl)c2ncc(C#N)c(NCC3C(C)(C)C3(C)C)c2c1)c1cn(C2(C(F)F)CC2)nn1 [Example 733, (S)-8-chloro-6-(((1-(1-(difluoromethyl)cyclopropyl)-1H-1,2,3-triazol-4-yl)(6-fluoro-2-methylpyridin-3-yl)methyl)amino)-4-(((2,2,3,3-tetramethylcyclopropyl)methyl)-amino)quinoline-3-carbonitrile] | 835 | 42 | –
Cn1cccc([C@H](Nc2cc(Cl)c3ncc(C#N)c(NCC(C)(C)C)c3c2)c2cn(C3(C(F)(F)F)CC3)nn2)c1=O [Example 936, (S)-8-chloro-6-(((1-methyl-2-oxo-1,2-dihydropyridin-3-yl)(1-(1-(trifluoromethyl)cyclopropyl)-1H-1,2,3-triazol-4-yl)methyl)amino)-4-(neopentylamino)quinoline-3-carbonitrile] | – | – | EC50 (TNFα; [3]): 287 nM; IC50 (Human Cot; [4]): 18 nM
Cc1nc(F)ccc1[C@H](Nc1cc(Cl)c2ncc(C#N)c(NCC(C)(C)C)c2c1)c1cn(C2(CO)COC2)nn1 [Example 648, (S)-8-chloro-6-(((6-fluoro-2-methylpyridin-3-yl)(1-(3-(hydroxymethyl)oxetan-3-yl)-1H-1,2,3-triazol-4-yl)methyl)amino)-4-(neopentylamino)quinoline-3-carbonitrile] | 114 | 3 | –

Further lines, with some results ahead:

EC50 (TNFα; [1]) [nM] | IC50 (Human Cot; [2]) [nM] | SMILES | further results
892 | 2 | CC(C)(C)N1CCC(n2cc([C@@H](Nc3cc(Cl)c4ncc(C#N)c(Nc5ccc(F)c(Cl)c5)c4c3)c3cccc4c3CNC4)nn2)CC1 [Example 59, (S)-6-(((1-(1-(tert-butyl)piperidin-4-yl)-1H-1,2,3-triazol-4-yl)(isoindolin-4-yl)methyl)amino)-8-chloro-4-((3-chloro-4-fluorophenyl)amino)quinoline-3-carbonitrile] | –
2110 | 67 | CC(C)n1cc([C@@H](Nc2cc(Cl)c3ncc(C#N)c(N[C@@H](c4ccccc4)C(C)(C)O)c3c2)c2cccnc2)nn1 [Example 187, 8-chloro-4-(((S)-2-hydroxy-2-methyl-1-phenylpropyl)amino)-6-(((S)-(1-isopropyl-1H-1,2,3-triazol-4-yl)(pyridin-3-yl)methyl)amino)-quinoline-3-carbonitrile] | –
804 | 19 | CC(C)(C)CNc1c(C#N)cnc2c(Br)cc(N[C@H](c3cn(C4CC4)nn3)c3cccc4nc(N)sc34)cc12 [Example 70, (S)-6-(((2-aminobenzo[d]thiazol-7-yl)(1-cyclopropyl-1H-1,2,3-triazol-4-yl)methyl)amino)-8-bromo-4-(neopentylamino)quinoline-3-carbonitrile] | –
212 | 10 | Cc1nc(Cl)ccc1[C@H](Nc1cc(Cl)c2ncc(C#N)c(Nc3ccc(F)c(Cl)c3)c2c1)c1cn(C2COC2)nn1 [Example 321, (S)-8-chloro-6-(((6-chloro-2-methyl-pyridin-3-yl)(1-(oxetan-3-yl)-1H-1,2,3-triazol-4-yl)methyl)amino)-4-((3-chloro-4-fluorophenyl)amino)quinoline-3-carbonitrile] | –
24 | 2 | Cc1nc(F)ccc1[C@H](Nc1cc(Cl)c2ncc(C#N)c(NCC(C)(C)C(F)(F)F)c2c1)c1cn(C23CC(C2)C3)nn1 [Example 719, (S)-6-(((1-(bicyclo[1.1.1]pentan-1-yl)-1H-1,2,3-triazol-4-yl)(6-fluoro-2-methylpyridin-3-yl)methyl)amino)-8-chloro-4-((3,3,3-trifluoro-2,2-dimethylpropyl)amino)quinoline-3-carbonitrile] | –
